Reference: PubChem BioAssay (NCI)
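Each compound was tested at five concentrations against cells in 96-well plates for 48 hours. TGI: total growth inhibition.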

Columns and labels:
Test in all cases: NCI tumour cell line growth inhibition, 48 h
[1] = tested on: OVCAR-3 ovarian
[2] = tested on: A498 renal
[3] = tested on: HS 578T breast
[4] = tested on: SK-MEL-2 melanoma
[5] = tested on: NCI/ADR-RES ovarian
[6] = tested on: OVCAR-5 ovarian
[7] = tested on: MDA-N
[8] = tested on: UACC-62 melanoma
[9] = tested on: HCT-116 colon
[10] = tested on: T-47D breast
[11] = tested on: RXF 393 renal
[12] = tested on: KM12 colon
[13] = tested on: HOP-62 NSCLC
[14] = tested on: IGROV1 ovarian
[15] = tested on: HCC-2998 colon
[16] = tested on: PC-3 prostate
[17] = tested on: SF-295 CNS
[18] = tested on: HOP-92 NSCLC
[19] = tested on: 786-0 renal
[20] = tested on: SR leukemia
[21] = tested on: ACHN renal
[22] = tested on: CAKI-1 renal
[23] = tested on: K-562 leukemia
[24] = tested on: HL-60(TB) leukemia
[25] = tested on: SF-539 CNS
[26] = tested on: TK-10 renal
[27] = tested on: HT29 colon
[28] = tested on: SNB-19 CNS
[29] = tested on: BT-549 breast
[30] = tested on: DU-145 prostate
[31] = tested on: UACC-257 melanoma
[32] = tested on: NCI-H226 lung
[33] = tested on: SK-OV-3 ovarian
[34] = tested on: UO-31 renal
[35] = tested on: A549 NSCLC
[36] = tested on: CCRF-CEM leukemia
[37] = tested on: SK-MEL-28 melanoma
[38] = tested on: RPMI-8226 leukemia
[39] = tested on: MDA-MB-435
[40] = tested on: NCI-H522 lung
[41] = tested on: SW-620 colon
[42] = tested on: MCF7 breast
[43] = tested on: COLO 205 colon
[44] = tested on: MOLT-4 leukemia
[45] = tested on: U251 CNS
[46] = tested on: EKVX NSCLC
[47] = tested on: SK-MEL-5 melanoma
[48] = tested on: NCI-H460 lung
[49] = tested on: OVCAR-4 ovarian
[50] = tested on: LOX IMVI melanoma
[51] = tested on: SNB-75 CNS
[52] = tested on: OVCAR-8 ovarian
[53] = tested on: HCT-15 colon
[54] = tested on: MALME-3M melanoma
[55] = tested on: NCI-H23 lung
[56] = tested on: SF-268 CNS
[57] = tested on: SN12C renal
[58] = tested on: MDA-MB-231 breast
[59] = tested on: M14 melanoma

For `CC(C)(CNC(=O)/C(Cl)=C(/Cl)C(=O)O)CNC(=O)/C(Cl)=C(/Cl)C(=O)O`, the TGI [1] was greater than 100 µM, the TGI [2] was greater than 100 µM and the TGI [3] was greater than 100 µM. The TGI [4] was greater than 100 µM, the TGI [5] was greater than 100 µM and the TGI [6] was greater than 100 µM. It also gave a TGI [7] greater than 100 µM, a TGI [8] greater than 100 µM and a TGI [9] greater than 100 µM. For the same compound, the TGI [10] was greater than 100 µM, the TGI [11] was greater than 100 µM and the TGI [12] was greater than 100 µM. It also gave a TGI [13] greater than 100 µM, a TGI [14] greater than 100 µM and a TGI [15] greater than 100 µM. For the same compound, the TGI [16] was greater than 100 µM, the TGI [17] was greater than 100 µM and the TGI [18] was greater than 100 µM. The TGI [19] was greater than 100 µM, the TGI [20] was greater than 100 µM and the TGI [21] was 60.3 µM. For the same compound, the TGI [22] was greater than 100 µM, the TGI [23] was greater than 100 µM and the TGI [24] was greater than 100 µM. For the same compound, the TGI [25] was greater than 100 µM, the TGI [26] was greater than 100 µM and the TGI [27] was greater than 100 µM. The TGI [28] was greater than 100 µM, the TGI [29] was greater than 100 µM and the TGI [30] was greater than 100 µM. For the same compound, the TGI [31] was greater than 100 µM, the TGI [32] was greater than 100 µM and the TGI [33] was greater than 100 µM. It also gave a TGI [34] greater than 100 µM, a TGI [35] greater than 100 µM and a TGI [36] greater than 100 µM. For the same compound, the TGI [37] was greater than 100 µM, the TGI [38] was 76.3 µM and the TGI [39] was greater than 100 µM. For the same compound, the TGI [40] was greater than 100 µM, the TGI [41] was greater than 100 µM and the TGI [42] was greater than 100 µM. It also gave a TGI [43] of 35.6 µM, a TGI [44] greater than 100 µM and a TGI [45] greater than 100 µM. It also gave a TGI [46] greater than 100 µM, a TGI [47] greater than 100 µM and a TGI [48] greater than 100 µM. The TGI [49] was greater than 100 µM, the TGI [50] was greater than 100 µM and the TGI [51] was greater than 100 µM. For the same compound, the TGI [52] was greater than 100 µM.

With `CCn1c(O)c(C=Nc2ccccc2)s/c1=N/Nc1ncc(CC(=O)Nc2ccccc2C)s1` the TGI [1] was greater than 100 µM, the TGI [2] was greater than 100 µM and the TGI [3] was greater than 100 µM. The TGI [4] was greater than 100 µM, the TGI [53] was greater than 100 µM and the TGI [5] was greater than 100 µM. The TGI [6] was greater than 100 µM, the TGI [7] was greater than 100 µM and the TGI [8] was greater than 100 µM. It also gave a TGI [9] greater than 100 µM, a TGI [10] greater than 100 µM and a TGI [11] greater than 100 µM. It also gave a TGI [54] greater than 100 µM, a TGI [55] greater than 100 µM and a TGI [12] greater than 100 µM. The TGI [13] was greater than 100 µM, the TGI [14] was greater than 100 µM and the TGI [56] was greater than 100 µM. It also gave a TGI [15] greater than 100 µM, a TGI [16] greater than 100 µM and a TGI [17] greater than 100 µM. The TGI [18] was greater than 100 µM, the TGI [19] was greater than 100 µM and the TGI [20] was greater than 100 µM. The TGI [21] was greater than 100 µM, the TGI [57] was greater than 100 µM and the TGI [22] was greater than 100 µM. The TGI [23] was greater than 100 µM, the TGI [24] was greater than 100 µM and the TGI [25] was greater than 100 µM. For the same compound, the TGI [26] was greater than 100 µM, the TGI [27] was greater than 100 µM and the TGI [28] was greater than 100 µM. It also gave a TGI [30] greater than 100 µM, a TGI [31] greater than 100 µM and a TGI [32] greater than 100 µM. The TGI [58] was greater than 100 µM, the TGI [33] was greater than 100 µM and the TGI [34] was greater than 100 µM. For the same compound, the TGI [59] was greater than 100 µM, the TGI [35] was greater than 100 µM and the TGI [36] was greater than 100 µM. For the same compound, the TGI [37] was greater than 100 µM, the TGI [38] was greater than 100 µM and the TGI [39] was greater than 100 µM. For the same compound, the TGI [40] was greater than 100 µM, the TGI [41] was greater than 100 µM and the TGI [42] was greater than 100 µM. The TGI [43] was greater than 100 µM, the TGI [44] was greater than 100 µM and the TGI [45] was greater than 100 µM. For the same compound, the TGI [46] was greater than 100 µM, the TGI [47] was greater than 100 µM and the TGI [48] was greater than 100 µM. For the same compound, the TGI [49] was greater than 100 µM, the TGI [50] was greater than 100 µM and the TGI [51] was greater than 100 µM. The TGI [52] was greater than 100 µM.

`CCOC(=O)C(COS(C)(=O)=O)(COS(C)(=O)=O)C(=O)OCC` showed a TGI [1] greater than 100 µM, a TGI [2] greater than 100 µM and a TGI [3] greater than 100 µM. The TGI [53] was greater than 100 µM, the TGI [5] was greater than 100 µM and the TGI [7] was greater than 100 µM. It also gave a TGI [9] greater than 100 µM, a TGI [10] greater than 100 µM and a TGI [11] greater than 100 µM. The TGI [55] was greater than 100 µM, the TGI [12] was greater than 100 µM and the TGI [56] was greater than 100 µM. It also gave a TGI [15] greater than 100 µM, a TGI [16] greater than 100 µM and a TGI [17] greater than 100 µM. It also gave a TGI [18] greater than 100 µM, a TGI [20] greater than 100 µM and a TGI [21] greater than 100 µM. For the same compound, the TGI [57] was greater than 100 µM, the TGI [23] was greater than 100 µM and the TGI [26] was greater than 100 µM. For the same compound, the TGI [27] was greater than 100 µM, the TGI [28] was greater than 100 µM and the TGI [30] was greater than 100 µM. For the same compound, the TGI [31] was greater than 100 µM, the TGI [32] was greater than 100 µM and the TGI [58] was greater than 100 µM. It also gave a TGI [33] greater than 100 µM, a TGI [34] greater than 100 µM and a TGI [59] greater than 100 µM. The TGI [35] was greater than 100 µM, the TGI [36] was greater than 100 µM and the TGI [37] was greater than 100 µM. For the same compound, the TGI [39] was greater than 100 µM, the TGI [40] was greater than 100 µM and the TGI [41] was greater than 100 µM. The TGI [42] was greater than 100 µM, the TGI [43] was greater than 100 µM and the TGI [44] was greater than 100 µM. It also gave a TGI [45] greater than 100 µM, a TGI [47] greater than 100 µM and a TGI [48] greater than 100 µM. It also gave a TGI [49] greater than 100 µM, a TGI [50] greater than 100 µM and a TGI [51] greater than 100 µM. The TGI [52] was greater than 100 µM.
